Laboratory results reported in patent publication US4005095A, “Substituted thienyl-acetic acid esters” (Innothera, priority 1974, dated 1977).
Counter-ions that a name gives are not always drawn.

tested on: rat duodenum; experiment: spasmolytic activity, papaverine type (contracting agent barium chloride), technique of MAGNUS; assay type: cell-based; details: Tyrode solution 38° C, concentration causing 50% inhibition of the contraction, compound tested (X), read-out: Spasmolytic activity, papaverine type, ED 50 (X)
Procedure: The spasmolytic activity was studied on the rat duodenum (1) or on the guinea pig ileum (2), kept alive in an aerated Tyrode solution heated to 38° C, in accordance with the technique of MAGNUS (Archiv. Ges. Physiol., 1905, 180, 1-71).
(1) The contracting agent used was barium chloride and the reference antagonistic agent was papaverine hydrochloride (R).

Point of comparison: `O=C(OCCN1CCCCC1)C(=C1CCCCC1)c1ccsc1` [Example 23, 2-Piperidino-ethyl cyclohexylidene-(thienyl-3)-acetate (hydrochloride)], IC50 2.4 µg/mL. Against it:
- CCN(CC)CCCOC(=O)C(c1ccc(C)s1)C1CCCCC1 (stereo not shown) [Example 20, 3-Diethylaminopropyl (5-methyl-thienyl-2)-cyclohexyl-acetate (hydrochloride)] — 2.2-fold lower, 1.1 µg/mL
- O=C(OCCCN1CCCCC1)C(=C1CCCCC1)c1ccsc1 [Example 24, 3-Piperidino-propyl cyclohexylidene-(thienyl-3)-acetate hydrochloride] — 3-fold lower, 0.8 µg/mL
- Cc1ccc(C(C(=O)OCCCN2CCCC2)c2ccccc2)s1 (stereo not shown) [Example 21, 3-Pyrrolidino-propyl (5-methyl-thienyl-2)-phenyl-acetate (oxalate)] — within 1.5-fold, 2.55 µg/mL
- CCN(CC)CCCOC(=O)C(c1ccsc1C)C1CCCCC1 (stereo not shown) [Example 22, 3-Diethylaminopropyl (2-methyl-thienyl-3)-cyclohexyl-acetate hydrochloride] — 6.3-fold lower, 0.38 µg/mL

same assay, conditions: relative to papaverine hydrochloride

Point of comparison: `O=C(OCCN1CCCCC1)C(=C1CCCCC1)c1ccsc1` [Example 23, 2-Piperidino-ethyl cyclohexylidene-(thienyl-3)-acetate (hydrochloride)], “Spasmolytic activity, papaverine type, ratio of ED 50 values, reference (R) to compound (X)” value 1.46. Against it:
- CCN(CC)CCCOC(=O)C(c1ccc(C)s1)C1CCCCC1 (stereo not shown) [Example 20, 3-Diethylaminopropyl (5-methyl-thienyl-2)-cyclohexyl-acetate (hydrochloride)] — higher, 5.45
- O=C(OCCCN1CCCCC1)C(=C1CCCCC1)c1ccsc1 [Example 24, 3-Piperidino-propyl cyclohexylidene-(thienyl-3)-acetate hydrochloride] — higher, 1.56
- CC(C[N+]1(C)CCCC1)OC(=O)C(=C1CCCCC1)c1ccsc1.[I-] (stereo not shown) [Example 25, 2-Pyrrolidino-isopropyl cyclohexylidene-(thienyl-3)-acetate (mono-iodomethylate)] — lower, 1
- Cc1ccc(C(C(=O)OCCCN2CCCC2)c2ccccc2)s1 (stereo not shown) [Example 21, 3-Pyrrolidino-propyl (5-methyl-thienyl-2)-phenyl-acetate (oxalate)] — higher, 2.16
- CCN(CC)CCCOC(=O)C(c1ccsc1C)C1CCCCC1 (stereo not shown) [Example 22, 3-Diethylaminopropyl (2-methyl-thienyl-3)-cyclohexyl-acetate hydrochloride] — higher, 19.75

tested on: guinea pig ileum; experiment: spasmolytic activity, atropine type (contracting agent acetylcholine chloride), technique of MAGNUS; details: Cavia porcellus, read-out: Spasmolytic activity, atropine type, ED 50 (X)
Source text: (2) The contracting agent used was acetylcholine chloride and the reference antagonistic agent was atropine sulphate (R).
Again, the activity of the compounds tested (X) was compared with that of the reference agent chosen (R), by calculating the ratio of their ED 50 values.

Point of comparison: `CCN(CC)CCCOC(=O)C(c1ccsc1C)C1CCCCC1` (stereo not shown) [Example 22, 3-Diethylaminopropyl (2-methyl-thienyl-3)-cyclohexyl-acetate hydrochloride], IC50 0.0115 µg/mL. Against it:
- CCN(CC)CCCOC(=O)C(c1ccc(C)s1)C1CCCCC1 (stereo not shown) [Example 20, 3-Diethylaminopropyl (5-methyl-thienyl-2)-cyclohexyl-acetate (hydrochloride)] — within 1.5-fold, 0.009 µg/mL
- O=C(OCCCN1CCCCC1)C(=C1CCCCC1)c1ccsc1 [Example 24, 3-Piperidino-propyl cyclohexylidene-(thienyl-3)-acetate hydrochloride] — 70-fold higher, 0.8 µg/mL
- Cc1ccc(C(C(=O)OCCCN2CCCC2)c2ccccc2)s1 (stereo not shown) [Example 21, 3-Pyrrolidino-propyl (5-methyl-thienyl-2)-phenyl-acetate (oxalate)] — 8.7-fold higher, 0.1 µg/mL
- O=C(OCCN1CCCCC1)C(=C1CCCCC1)c1ccsc1 [Example 23, 2-Piperidino-ethyl cyclohexylidene-(thienyl-3)-acetate (hydrochloride)] — 34-fold higher, 0.39 µg/mL

tested on: mice; experiment: in vivo; details: mice, intraperitoneal, mortality over 7 days
Procedure: (§1) The acute toxicity was evaluated by intraperitoneal administration to mice. The products were suspended in a dilute pseudo-solution of carboxymethyl-cellulose.
(§2) The mortality was checked over the course of the 7 days which followed the treatment.

With `CC(C[N+]1(C)CCCC1)OC(=O)C(=C1CCCCC1)c1ccsc1.[I-]` (stereo not shown) [Example 25, 2-Pyrrolidino-isopropyl cyclohexylidene-(thienyl-3)-acetate (mono-iodomethylate)] the “Acute toxicity in mice, intraperitoneal administration, LD 50” value was 80 mg/kg.

tested on: not listed separately; experiment: in vivo; details: mouse, in vivo, ip
Procedure: as §1, §2

Point of comparison: `CCN(CC)CCCOC(=O)C(c1ccsc1C)C1CCCCC1` (stereo not shown) [Example 22, 3-Diethylaminopropyl (2-methyl-thienyl-3)-cyclohexyl-acetate hydrochloride], LD50 at 168 h 80 mg/kg. Against it:
- CCN(CC)CCCOC(=O)C(c1ccc(C)s1)C1CCCCC1 (stereo not shown) [Example 20, 3-Diethylaminopropyl (5-methyl-thienyl-2)-cyclohexyl-acetate (hydrochloride)] — the same, 80 mg/kg
- O=C(OCCCN1CCCCC1)C(=C1CCCCC1)c1ccsc1 [Example 24, 3-Piperidino-propyl cyclohexylidene-(thienyl-3)-acetate hydrochloride] — 1.9-fold higher, 150 mg/kg
- Cc1ccc(C(C(=O)OCCCN2CCCC2)c2ccccc2)s1 (stereo not shown) [Example 21, 3-Pyrrolidino-propyl (5-methyl-thienyl-2)-phenyl-acetate (oxalate)] — within 1.5-fold, 100 mg/kg
- O=C(OCCN1CCCCC1)C(=C1CCCCC1)c1ccsc1 [Example 23, 2-Piperidino-ethyl cyclohexylidene-(thienyl-3)-acetate (hydrochloride)] — the same, 80 mg/kg
